Laboratory results from BigSolDB 2.1.

solubility (mole fraction) (in n-octanol, 298.15 K) | solubility (mole fraction) (in n-octanol, 303.15 K) | solubility (mole fraction) (in n-octanol, 308.15 K) | solubility (mole fraction) (in n-octanol, 313.15 K) | solubility (mole fraction) (in n-octanol, 318.15 K) | solubility (mole fraction) (in water, 298.15 K) | solubility (mole fraction) (in water, 303.15 K) | solubility (mole fraction) (in water, 308.15 K) | solubility (mole fraction) (in water, 313.15 K) | solubility (mole fraction) (in water, 318.15 K) | Structure (SMILES)
0.0002 | 0.00021 | 0.00023 | 0.00025 | 0.00027 | 4.54e-08 | 6.74e-08 | 1.2e-07 | 1.91e-07 | 3.74e-07 | O=c1cc(-c2ccc(O)c(O)c2)oc2cc(O)cc(O)c12
0.00857 | 0.00895 | 0.00965 | 0.0103 | 0.0118 | 4.59e-10 | 1.17e-09 | 2.31e-09 | 4.48e-09 | 7.65e-09 | O=c1c(O)c(-c2ccc(O)cc2)oc2cc(O)cc(O)c12
0.00208 | 0.00218 | 0.00228 | 0.00234 | 0.00247 | 5.95e-10 | 1.24e-09 | 3.63e-09 | 1e-08 | 1.88e-08 | O=c1cc(-c2ccccc2)oc2cc(O)cc(O)c12
0.0127 | 0.0141 | 0.0157 | 0.0176 | 0.0196 | 2.55e-05 | 3.18e-05 | 4.5e-05 | 6.88e-05 | 8.05e-05 | O=C1c2c(O)cc(O)cc2OC(c2ccc(O)c(O)c2)C1O (stereo not given)
0.00056 | 0.0006 | 0.00065 | 0.00069 | 0.00075 | 7.85e-10 | 3.51e-09 | 6.78e-09 | 1.08e-08 | 1.5e-08 | COc1ccc(-c2coc3cc(O)ccc3c2=O)cc1
0.00269 | 0.00299 | 0.0033 | 0.00379 | 0.0042 | 5.51e-08 | 1.35e-07 | 2.52e-07 | 4.66e-07 | 7.9e-07 | COc1ccc(C2CC(=O)c3c(O)cc(O)cc3O2)cc1O (stereo not given)
0.00526 | 0.00608 | 0.00677 | 0.00747 | 0.00823 | 5.29e-09 | 1.02e-08 | 1.61e-08 | 2.34e-08 | 3.78e-08 | O=c1c(O)c(-c2ccc(O)c(O)c2)oc2cc(O)cc(O)c12
0.00903 | 0.00963 | 0.0103 | 0.0109 | 0.0114 | 1.79e-07 | 2.98e-07 | 4.96e-07 | 7.64e-07 | 1.1e-06 | O=C1C[C@@H](c2ccc(O)cc2)Oc2cc(O)cc(O)c21
0.00226 | 0.00235 | 0.00251 | 0.00265 | 0.00288 | 6.19e-09 | 2.24e-08 | 3.25e-08 | 4.57e-08 | 9.53e-08 | O=c1c(O)c(-c2ccc(O)cc2O)oc2cc(O)cc(O)c12
0.00077 | 0.0008 | 0.00084 | 0.00094 | 0.00102 | 7.47e-09 | 1.73e-08 | 2.96e-08 | 5.87e-08 | 1.03e-07 | O=c1cc(-c2ccc(O)cc2)oc2cc(O)cc(O)c12
